Laboratory results taken from US20260077018A1, “TREATMENT OF MILD TRAUMATIC BRAIN INJURY” (OXEIA BIOPHARMACEUTICALS, INC., priority 2022, published 2026).
No end group written: not given here. *: point of attachment. Octanoyl = CCCCCCCC(=O)*

Tested on: persistently symptomatic concussion patients
Test: Phase 2 study of OXE-103 in persistently symptomatic concussion: PCSS symptom scoring
Type: in vivo, human
Conditions: for PCSS symptom balance_problems / PCSS symptom difficulty_concentrating / PCSS symptom difficulty_remembering / PCSS symptom dizziness / PCSS symptom drowsiness / PCSS symptom fatigue / PCSS symptom feeling_in_a_fog / PCSS symptom feeling_more_emotional / PCSS symptom feeling_slowed_down / PCSS symptom headache / PCSS symptom irritability / PCSS symptom nausea / PCSS symptom neck_pain / PCSS symptom nervous_anxious / PCSS symptom numbness_or_tingling / PCSS symptom sadness / PCSS symptom sensitivity_to_light / PCSS symptom sensitivity_to_noise / PCSS symptom sleeping_less_than_usual / PCSS symptom sleeping_more_than_usual / PCSS symptom trouble_falling_asleep / PCSS symptom visual_problems / PCSS symptom vomiting: aggregated; for 20% Responders - PCSS: Number of Responders / 20% Responders - PCSS: Responder % / 30% Responders - PCSS: Number of Responders / 30% Responders - PCSS: Responder %: Treated, 13 subjects
From the text: Describe the change in symptom burden in sub-acute concussion for the two groups. A maximum of 50 subjects are enrolled, but recruiting stops if each arm has 20 participants, diagnosed with persistent concussion symptoms 28 days post injury who complete the study. Patients are randomized 1:1 to placebo versus OXE-103. The Post-Concussion Symptom Score questionnaire (PCSS) is used as an overall measure of symptom burden. The number of symptoms and severity at each time point are also measures of interest. In addition, subjects are asked to identify and rank the 4 most bothersome symptoms. Without being bound by theory, it is hypothesized that changes in these most bothersome symptoms have a higher correlation to improvement in quality of life. A visual comparison of change in the two groups is made. A change of 20% is considered to be clinically meaningful. This primary aim describes the change in symptoms between day 1 and day 14.
Described herein is a randomized, double-blind, placebo-controlled design where 40 subjects will be randomized to either a placebo cohort or a treatment with OXE-103 cohort. We randomize using the RedCap database. The database is set up to share randomization allocation only with the investigational pharmacy. All subjects are consented and begin the screening period within 28 days post-injury. There is a 7-day screening period prior to randomization and commencement of study treatment to allow for assessment of stability of symptom burden. This screening period must start no later than 28 days post-injury. Starting with Day 1 (end of screening period), the treatment cohort receives OXE-103 40ug/kg SC twice daily by self-injection and the placebo group receives a placebo injection SC twice daily. Study drug and placebo are maintained and dispensed by Investigational Pharmacy. Subjects receive an 8-day supply of syringes pre-loaded with OXE-103 or placebo. Each cohort receives the 2nd set of syringes with OXE-103 or placebo at the day 7 visit. No therapies other than OXE-103 are administered during the 14-day treatment period to either cohort. After completion of 14 days of either placebo or OXE-103 treatment, starting with the Day 14 visit, other medications and therapies can be initiated for either cohort as needed.
Symptom reduction (AIM 1): Our primary goal is to describe the change in number of symptoms and/or severity in sub-acute concussion with treatment with OXE-103 using the PCSS at days 1 and 15. We will also collect data at days 21 and 44 to potentially describe long term changes and potential lasting effect (AIM 4).
Subjects complete the PCSS at the following timepoints[17]: upon signing consent (score must 20) (day −7), mid-way through the screening period (day −3), prior to assignment of a treatment cohort (score must 20) (day 1), as well as days 4, 8, 11, 15, 21 and 44. Subjects are instructed to record their symptoms at the same time of day for each assessment timepoint. There can be a two-hour window either way. (e.g. 12 PM+/−2 hrs.) The PCSS is recorded via a RedCap survey. The PCSS is a self-reported assessment of 22 symptoms using a Likert-type scale ranging from 0-6, with 0 indicating no difficulty with the outlined symptom and ratings of 1-6 representing mild-to-severe difficulty with the symptom. The reliability and validity of the PCSS are well documented We also ask subjects to rank their 4 most burdensome symptoms (4MBS) at Day 1 and we analyze these separately. As stated in the Specific Aims the purpose of this study is to collect data that would further refine clinical endpoints that could be used for larger Phase 2 studies and possibly lead to the establishment of pivotal endpoints for Phase 3 registration trials. The 22 symptom PCSS assessment is designed to cover the full spectrum of concussion related symptoms across cognitive, emotional and somatic domains. In that regard the PCSS is particularly useful for diagnosis and monitoring recovery of patients post injury. […]

## ghrelin (GSS(Octanoyl)FLSPEHQRVQQRKESKKPPAKLQPR; UniProt Q9UBU3 24-51, looked up) [OXE-103, naturally occurring peptide comprising 28 amino acids that include an N-octanoyl group at the 3-position of serine]
Day 1, OXE-103 Treated
  PCSS symptom balance_problems: 30
  PCSS symptom difficulty_concentrating: 46
  PCSS symptom difficulty_remembering: 48
  PCSS symptom dizziness: 37
  PCSS symptom drowsiness: 38
  PCSS symptom fatigue: 43
  PCSS symptom feeling_in_a_fog: 46
  PCSS symptom feeling_more_emotional: 31
  PCSS symptom feeling_slowed_down: 46
  PCSS symptom headache: 37
  PCSS symptom irritability: 35
  PCSS symptom nausea: 18
  PCSS symptom neck_pain: 38
  PCSS symptom nervous_anxious: 35
  PCSS symptom numbness_or_tingling: 16
  PCSS symptom sadness: 28
  PCSS symptom sensitivity_to_light: 35
  PCSS symptom sensitivity_to_noise: 36
  PCSS symptom sleeping_less_than_usual: 15
  PCSS symptom sleeping_more_than_usual: 24
  PCSS symptom trouble_falling_asleep: 37
  PCSS symptom visual_problems: 30
  PCSS symptom vomiting: 2
Day 1
  20% Responders - PCSS: Number of Responders: 0
  20% Responders - PCSS: Responder %: 0%
  30% Responders - PCSS: Number of Responders: 0
  30% Responders - PCSS: Responder %: 0%
Day 4, OXE-103 Treated
  PCSS symptom balance_problems: 25
  PCSS symptom difficulty_concentrating: 37
  PCSS symptom difficulty_remembering: 35
  PCSS symptom dizziness: 35
  PCSS symptom drowsiness: 39
  PCSS symptom fatigue: 44
  PCSS symptom feeling_in_a_fog: 30
  PCSS symptom feeling_more_emotional: 24
  PCSS symptom feeling_slowed_down: 33
  PCSS symptom headache: 29
  PCSS symptom irritability: 30
  PCSS symptom nausea: 11
  PCSS symptom neck_pain: 29
  PCSS symptom nervous_anxious: 25
  PCSS symptom numbness_or_tingling: 6
  PCSS symptom sadness: 17
  PCSS symptom sensitivity_to_light: 25
  PCSS symptom sensitivity_to_noise: 26
  PCSS symptom sleeping_less_than_usual: 23
  PCSS symptom sleeping_more_than_usual: 32
  PCSS symptom trouble_falling_asleep: 32
  PCSS symptom visual_problems: 18
  PCSS symptom vomiting: 1
Day 4
  20% Responders - PCSS: Number of Responders: 4
  20% Responders - PCSS: Responder %: 31%
  30% Responders - PCSS: Number of Responders: 3
  30% Responders - PCSS: Responder %: 23%
Day 8, OXE-103 Treated
  PCSS symptom balance_problems: 30
  PCSS symptom difficulty_concentrating: 41
  PCSS symptom difficulty_remembering: 35
  PCSS symptom dizziness: 28
  PCSS symptom drowsiness: 41
  PCSS symptom fatigue: 45
  PCSS symptom feeling_in_a_fog: 34
  PCSS symptom feeling_more_emotional: 33
  PCSS symptom feeling_slowed_down: 36
  PCSS symptom headache: 34
  PCSS symptom irritability: 36
  PCSS symptom nausea: 15
  PCSS symptom neck_pain: 26
  PCSS symptom nervous_anxious: 34
  PCSS symptom numbness_or_tingling: 12
  PCSS symptom sadness: 32
  PCSS symptom sensitivity_to_light: 20
  PCSS symptom sensitivity_to_noise: 23
  PCSS symptom sleeping_less_than_usual: 32
  PCSS symptom sleeping_more_than_usual: 20
  PCSS symptom trouble_falling_asleep: 32
  PCSS symptom visual_problems: 23
  PCSS symptom vomiting: 1
Day 8
  20% Responders - PCSS: Number of Responders: 3
  20% Responders - PCSS: Responder %: 23%
  30% Responders - PCSS: Number of Responders: 2
  30% Responders - PCSS: Responder %: 15%
Day 11, OXE-103 Treated
  PCSS symptom balance_problems: 24
  PCSS symptom difficulty_concentrating: 23
  PCSS symptom difficulty_remembering: 28
  PCSS symptom dizziness: 18
  PCSS symptom drowsiness: 33
  PCSS symptom fatigue: 36
  PCSS symptom feeling_in_a_fog: 23
  PCSS symptom feeling_more_emotional: 20
  PCSS symptom feeling_slowed_down: 27
  PCSS symptom headache: 21
  PCSS symptom irritability: 28
  PCSS symptom nausea: 10
  PCSS symptom neck_pain: 18
  PCSS symptom nervous_anxious: 19
  PCSS symptom numbness_or_tingling: 5
  PCSS symptom sadness: 22
  PCSS symptom sensitivity_to_light: 18
  PCSS symptom sensitivity_to_noise: 19
  PCSS symptom sleeping_less_than_usual: 15
  PCSS symptom sleeping_more_than_usual: 19
  PCSS symptom trouble_falling_asleep: 21
  PCSS symptom visual_problems: 12
  PCSS symptom vomiting: 1
Day 11
  20% Responders - PCSS: Number of Responders: 9
  20% Responders - PCSS: Responder %: 69%
  30% Responders - PCSS: Number of Responders: 7
  30% Responders - PCSS: Responder %: 54%
Day 15, OXE-103 Treated
  PCSS symptom balance_problems: 22
  PCSS symptom difficulty_concentrating: 30
  PCSS symptom difficulty_remembering: 26
  PCSS symptom dizziness: 21
  PCSS symptom drowsiness: 25
  PCSS symptom fatigue: 30
  PCSS symptom feeling_in_a_fog: 20
  PCSS symptom feeling_more_emotional: 22
  PCSS symptom feeling_slowed_down: 23
  PCSS symptom headache: 25
  PCSS symptom irritability: 25
  PCSS symptom nausea: 6
  PCSS symptom neck_pain: 20
  PCSS symptom nervous_anxious: 23
  PCSS symptom numbness_or_tingling: 5
  PCSS symptom sadness: 21
  PCSS symptom sensitivity_to_light: 18
  PCSS symptom sensitivity_to_noise: 16
  PCSS symptom sleeping_less_than_usual: 22
  PCSS symptom sleeping_more_than_usual: 15
  PCSS symptom trouble_falling_asleep: 25
  PCSS symptom visual_problems: 17
  PCSS symptom vomiting: 1
Day 15
  20% Responders - PCSS: Number of Responders: 9
  20% Responders - PCSS: Responder %: 69%
  30% Responders - PCSS: Number of Responders: 7
  30% Responders - PCSS: Responder %: 54%
Day 21, OXE-103 Treated
  PCSS symptom balance_problems: 23
  PCSS symptom difficulty_concentrating: 24
  PCSS symptom difficulty_remembering: 26
  PCSS symptom dizziness: 23
  PCSS symptom drowsiness: 26
  PCSS symptom fatigue: 28
  PCSS symptom feeling_in_a_fog: 24
  PCSS symptom feeling_more_emotional: 19
  PCSS symptom feeling_slowed_down: 26
  PCSS symptom headache: 23
  PCSS symptom irritability: 21
  PCSS symptom nausea: 12
  PCSS symptom neck_pain: 21
  PCSS symptom nervous_anxious: 16
  PCSS symptom numbness_or_tingling: 6
  PCSS symptom sadness: 14
  PCSS symptom sensitivity_to_light: 21
  PCSS symptom sensitivity_to_noise: 18
  PCSS symptom sleeping_less_than_usual: 19
  PCSS symptom sleeping_more_than_usual: 15
  PCSS symptom trouble_falling_asleep: 24
  PCSS symptom visual_problems: 19
  PCSS symptom vomiting: 0
Day 21
  20% Responders - PCSS: Number of Responders: 9
  20% Responders - PCSS: Responder %: 69%
  30% Responders - PCSS: Number of Responders: 8
  30% Responders - PCSS: Responder %: 62%
Day 44, OXE-103 Treated
  PCSS symptom balance_problems: 12
  PCSS symptom difficulty_concentrating: 16
  PCSS symptom difficulty_remembering: 21
  PCSS symptom dizziness: 9
  PCSS symptom drowsiness: 16
  PCSS symptom fatigue: 17
  PCSS symptom feeling_in_a_fog: 16
  PCSS symptom feeling_more_emotional: 7
  PCSS symptom feeling_slowed_down: 18
  PCSS symptom headache: 15
  PCSS symptom irritability: 10
  PCSS symptom nausea: 7
  PCSS symptom neck_pain: 14
  PCSS symptom nervous_anxious: 11
  PCSS symptom numbness_or_tingling: 6
  PCSS symptom sadness: 8
  PCSS symptom sensitivity_to_light: 9
  PCSS symptom sensitivity_to_noise: 13
  PCSS symptom sleeping_less_than_usual: 11
  PCSS symptom sleeping_more_than_usual: 8
  PCSS symptom trouble_falling_asleep: 16
  PCSS symptom visual_problems: 9
  PCSS symptom vomiting: 1
Day 44
  20% Responders - PCSS: Number of Responders: 11
  20% Responders - PCSS: Responder %: 85%
  30% Responders - PCSS: Number of Responders: 9
  30% Responders - PCSS: Responder %: 69%
Aggregated across 11 OXE-103 treatment responders per symptom
  PCSS symptoms, change from Day 1 to Day 44 (FIG. 14): reduction in all symptoms
reduction, OXE-103 Treated
  balance_problems % change from day 1 to day 44: 60%
  difficulty_concentrating % change from day 1 to day 44: 65%
  difficulty_remembering % change from day 1 to day 44: 56%
  dizziness % change from day 1 to day 44: 76%
  drowsiness % change from day 1 to day 44: 58%
  fatigue % change from day 1 to day 44: 60%
  feeling_in_a_fog % change from day 1 to day 44: 65%
  feeling_more_emotional % change from day 1 to day 44: 77%
  feeling_slowed_down % change from day 1 to day 44: 61%
  headache % change from day 1 to day 44: 59%
  irritability % change from day 1 to day 44: 71%
  nausea % change from day 1 to day 44: 61%
  neck_pain % change from day 1 to day 44: 63%
  nervous_anxious % change from day 1 to day 44: 69%
  numbness_or_tingling % change from day 1 to day 44: 63%
  sadness % change from day 1 to day 44: 71%
  sensitivity_to_light % change from day 1 to day 44: 74%
  sensitivity_to_noise % change from day 1 to day 44: 64%
  sleeping_less_than_usual % change from day 1 to day 44: 27%
  sleeping_more_than_usual % change from day 1 to day 44: 67%
  trouble_falling_asleep % change from day 1 to day 44: 57%
  visual_problems % change from day 1 to day 44: 70%
  vomiting % change from day 1 to day 44: 50%
